The results in this text go back to patent EP4596574A1, “GLP-1/GCG/GIP TRIPLE-RECEPTOR AGONIST AND USE THEREOF” (Sunshine Lake Pharma Co., Ltd., priority 2022, dated 2024).

For one data set, the target named is T1, GLP-1R (Homo sapiens, UniProt P43220).
T1 construct: expressed in transfected cells; host or cells: HEK293 (HEK293-GLP-1R)
The data set is described as follows: In vitro cell activity, cAMP production in HEK293 cells expressing GLP-1R. In kind it is cell-based. The method in brief:
(§1)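 Assay format: cells at 4×10^5 cells/mL, cAMP sensed by d2/cryptate FRET pair, dual-wavelength read at 665 and 620 nm. Potency expressed as EC50 from nonlinear fitting.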

The next data set has as its target T2, GCGR (Homo sapiens, UniProt P47871).
T2 construct: expressed in transfected cells; host or cells: HEK293 (HEK293-GCGR)
The data set is described as follows: In vitro cell activity, cAMP production in HEK293 cells expressing GCGR. In kind it is cell-based. The method in brief: as §1

A further data set deals with T3, GIPR (Homo sapiens, UniProt P48546).
T3 construct: expressed in transfected cells; host or cells: HEK293 (HEK293-GIPR)
T3 sequence (P48546 22-466): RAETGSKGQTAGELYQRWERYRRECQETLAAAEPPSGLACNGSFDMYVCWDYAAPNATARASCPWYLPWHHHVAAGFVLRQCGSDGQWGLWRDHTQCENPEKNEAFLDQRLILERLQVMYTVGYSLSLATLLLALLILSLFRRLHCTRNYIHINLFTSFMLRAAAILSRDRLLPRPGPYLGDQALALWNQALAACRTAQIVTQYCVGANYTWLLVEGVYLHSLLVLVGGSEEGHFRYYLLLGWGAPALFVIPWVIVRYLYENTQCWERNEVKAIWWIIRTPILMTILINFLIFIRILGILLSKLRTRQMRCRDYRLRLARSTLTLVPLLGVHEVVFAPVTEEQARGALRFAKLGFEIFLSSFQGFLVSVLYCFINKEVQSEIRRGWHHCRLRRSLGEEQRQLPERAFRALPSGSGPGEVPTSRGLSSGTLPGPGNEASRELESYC
The data set is described as follows: In vitro cell activity, cAMP production in HEK293 cells expressing GIPR. In kind it is cell-based. The method in brief:
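cAMP accumulation is quantified by homogeneous TR-FRET (cAMP-d2 plus anti-cAMP cryptate) in GIPR-expressing HEK293 cells seeded from a 4×10^5 cells/mL suspension and treated with compound. The signal ratio is plotted against concentration and fitted to a four-parameter curve to give EC50.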
(In general: Changes in cAMP serve as a functional read-out for many G protein-coupled receptors.)

A short description of data set [1]: Glucose tolerance assessment in normal C57BL/6 mice (Example 5). The class given is in vivo. To be noted: for Blood glucose level (mM) 15 min / Blood glucose level (mM) 30 min / Blood glucose level (mM) 60 min / Blood glucose level (mM) 90 min / Blood glucose level (mM) 0 min / AUC0-90 min: 3 nmol/kg s.c. single dose, 24 h after administration; for Blood glucose level (mM) 15 min: 15 min after 2 g/kg glucose i.p.; for Blood glucose level (mM) 30 min: 30 min after 2 g/kg glucose i.p.; for Blood glucose level (mM) 60 min: 60 min after 2 g/kg glucose i.p.; for Blood glucose level (mM) 90 min: 90 min after 2 g/kg glucose i.p.; for Blood glucose level (mM) 0 min: basal before 2 g/kg glucose i.p.; for AUC0-90 min: blood glucose AUC, 2 g/kg glucose i.p. In a few lines: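 Normal C57BL/6 mice given a single dose, fasted 12 h starting 12 h post-dose, then challenged with 2 g/kg glucose i.p. Tail-vein glucose measured at baseline and 15, 30, 60, 90 min. AUC0~90min calculated from the glucose–time curve per dose group.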

Data set [2] in a line: Pharmacokinetic study in rats, single subcutaneous injection. Particulars: male, Sprague Dawley, in vivo, sc, rat, 50 nmol/kg single subcutaneous injection, plasma; for half-life: read-out: T1/2 (converted); for Tmax: read-out: Tmax. The method, then: The pharmacokinetic study of each polypeptide compound prepared in Example 1 was conducted using male Sprague Dawley rats. There were 3 male rats in each group. […] The dose was 50 nmol/kg, and a single subcutaneous injection was given (see Table 3 for specific peptide compounds). After administration, plasma was collected on the specified days and time points, and the concentration of each peptide compound in the plasma was detected by LC-MS/MS method. The pharmacokinetic parameters were obtained based on the concentration data, which were used to describe the pharmacokinetic properties of the peptide in rats after subcutaneous injection. Table 3: Summary of pharmacokinetic parameters of some triple-target peptides in rats

Marks after values point to notes of the source that are not given here. Starred links: 1 amine or outer side, 2 acyl side, 3 side chain; linkers in the order of their positions; H or OH if unused. Non-standard residues stand in square brackets, D forms with d. Residues, ends and D or L forms follow the SMILES beside them. Groups on a side chain read outwards from the residue. *: point of attachment. C18 diacid = O=C(O)CCCCCCCCCCCCCCCCC(=O)*; αMePhe(2-F) = C[C@](N)(Cc1ccccc1F)C(=O)O; γGlu = O=C(O)[C@H](CCC(=O)[*:2])N[*:1]; AEEA = NCCOCCOCC(=O)O; Aib = CC(C)(N)C(=O)O

T1 sequence (P43220 24-463, species assumed): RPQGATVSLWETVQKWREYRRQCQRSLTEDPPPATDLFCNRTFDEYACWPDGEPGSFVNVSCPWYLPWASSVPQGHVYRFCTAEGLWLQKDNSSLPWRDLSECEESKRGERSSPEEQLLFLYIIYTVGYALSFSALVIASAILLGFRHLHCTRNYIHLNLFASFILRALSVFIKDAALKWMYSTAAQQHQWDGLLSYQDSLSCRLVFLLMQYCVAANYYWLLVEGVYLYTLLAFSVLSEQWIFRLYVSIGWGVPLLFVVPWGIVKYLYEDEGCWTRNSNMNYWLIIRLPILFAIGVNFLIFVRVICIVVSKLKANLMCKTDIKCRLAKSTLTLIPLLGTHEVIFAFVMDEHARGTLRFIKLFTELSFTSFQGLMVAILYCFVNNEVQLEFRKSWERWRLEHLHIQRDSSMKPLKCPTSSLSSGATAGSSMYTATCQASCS
T2 sequence (P47871 26-477, species assumed): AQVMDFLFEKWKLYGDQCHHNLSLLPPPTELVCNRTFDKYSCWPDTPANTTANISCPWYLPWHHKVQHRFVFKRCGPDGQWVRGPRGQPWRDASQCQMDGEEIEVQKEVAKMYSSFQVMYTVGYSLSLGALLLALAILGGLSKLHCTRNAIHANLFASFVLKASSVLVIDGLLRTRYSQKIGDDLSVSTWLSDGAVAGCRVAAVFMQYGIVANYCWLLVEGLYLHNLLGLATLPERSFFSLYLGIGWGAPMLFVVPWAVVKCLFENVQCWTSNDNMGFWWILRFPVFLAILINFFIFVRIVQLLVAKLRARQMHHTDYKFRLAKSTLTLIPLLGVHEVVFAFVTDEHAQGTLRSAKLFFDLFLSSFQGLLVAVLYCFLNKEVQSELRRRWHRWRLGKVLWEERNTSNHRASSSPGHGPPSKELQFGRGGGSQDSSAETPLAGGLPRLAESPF

The molecule `CC[C@H](C)[C@H](NC(=O)[C@H](CCCCN)NC(=O)[C@H](CC(=O)O)NC(=O)[C@H](CCCCNC(=O)COCCOCCNC(=O)CC[C@H](NC(=O)CCCCCCCCCCCCCCCCC(=O)O)C(=O)O)NC(=O)[C@H](CC(C)C)NC(=O)[C@@H](NC(=O)[C@H](CO)NC(=O)[C@H](Cc1ccc(O)cc1)NC(=O)[C@H](CC(=O)O)NC(=O)[C@H](CO)NC(=O)[C@@H](NC(=O)[C@](C)(Cc1ccccc1F)NC(=O)[C@@H](NC(=O)CNC(=O)[C@H](CCC(N)=O)NC(=O)C(C)(C)NC(=O)[C@@H](N)Cc1ccc(O)cc1)[C@@H](C)O)[C@@H](C)O)[C@@H](C)CC)C(=O)N[C@@H](C)C(=O)N[C@@H](CCC(N)=O)C(=O)N[C@@H](CCC(N)=O)C(=O)N[C@@H](C)C(=O)N[C@@H](Cc1ccccc1)C(=O)N[C@H](C(=O)N[C@@H](CCC(=O)O)C(=O)N[C@@H](Cc1ccc(O)cc1)C(=O)N[C@@H](CC(C)C)C(=O)N[C@@H](CC(C)C)C(=O)N[C@@H](CCC(=O)O)C(=O)NCC(=O)NCC(=O)N1CCC[C@H]1C(=O)N[C@@H](CO)C(=O)N[C@@H](CO)C(=O)NCC(=O)N[C@@H](C)C(=O)N1CCC[C@H]1C(=O)N1CCC[C@H]1C(=O)N1CCC[C@H]1C(=O)N[C@@H](CO)C(N)=O)[C@@H](C)CC` [HEC-PT113] (H-Y[Aib]QGT[αMePhe(2-F)]TSDYSILK([AEEA-γGlu-C18 diacid])DKIAQQAFIEYLLEGGPSSGAPPPS-NH2) had an EC50 at GLP-1R of 0.103 nM. The same molecule showed an EC50 at GCGR of 0.171 nM. Besides, at GIPR, a half-maximal response (EC50) required 0.0188 nM. Also, in data set [1], the “Blood glucose level (mM) 15 min” value stood at 12.6 ± 1.7 mM, the “Blood glucose level (mM) 30 min” value worked out at 8.0 ± 1.0 mM, the “Blood glucose level (mM) 60 min” value came to 7.9 ± 1.3 mM and the “Blood glucose level (mM) 90 min” value was determined as 6.7 ± 0.8 mM. Also, in data set [1], the “Blood glucose level (mM) 0 min” value turned out to be 4.6 ± 0.9 mM and the AUC0-90 min is listed as 743.5±48.5^a. In addition, the “improvement of glucose tolerance compared with LY3298176” value in data set [1] (24 hours after a single administration, 3 nmol/kg) is “improved glucose tolerance in mice better than the positive control LY3298176”. Moreover, in data set [2], the AUC(0-inf) is 27.9 ± 4.18 µg·h/mL, the area under the curve AUC(0-t) came to 27.7 ± 4.11 µg·h/mL, the concentration peaked (Cmax) at 0.714 ± 0.0632 µg/mL and the half-life was 11 ± 0.62 h. Also, the Tmax in data set [2] worked out at 13 ± 9.9 h.

As to `CC[C@H](C)[C@H](NC(=O)[C@H](Cc1ccccc1)NC(=O)[C@H](C)NC(=O)[C@H](CCCNC(=N)N)NC(=O)[C@H](CCC(N)=O)NC(=O)[C@H](CCCNC(=N)N)NC(=O)[C@H](CCCCNC(=O)COCCOCCNC(=O)CC[C@H](NC(=O)CCCCCCCCCCCCCCCCC(=O)O)C(=O)O)NC(=O)[C@H](CCC(=O)O)NC(=O)[C@H](CC(=O)O)NC(=O)[C@H](CC(C)C)NC(=O)[C@H](CC(C)C)NC(=O)[C@@H](NC(=O)[C@H](CO)NC(=O)[C@H](Cc1ccc(O)cc1)NC(=O)[C@H](CC(=O)O)NC(=O)[C@H](CO)NC(=O)[C@@H](NC(=O)[C@](C)(Cc1ccccc1F)NC(=O)[C@@H](NC(=O)CNC(=O)[C@H](Cc1c[nH]cn1)NC(=O)C(C)(C)NC(=O)[C@@H](N)Cc1ccc(O)cc1)[C@@H](C)O)[C@@H](C)O)[C@@H](C)CC)C(=O)N[C@@H](CCC(=O)O)C(=O)N[C@@H](Cc1ccc(O)cc1)C(=O)N[C@@H](CC(C)C)C(=O)N[C@@H](CC(C)C)C(=O)N[C@@H](C)C(=O)NCC(=O)NCC(=O)N1CCC[C@H]1C(=O)N[C@@H](CO)C(=O)N[C@@H](CO)C(=O)NCC(=O)N[C@@H](C)C(=O)N1CCC[C@H]1C(=O)N1CCC[C@H]1C(=O)N1CCC[C@H]1C(=O)N[C@@H](CO)C(=O)O` [HEC-PT119], at GLP-1R, the half-maximal effective concentration (EC50) was determined as 0.189 nM. Besides, it took 0.266 nM to reach a half-maximal effect on GCGR (EC50). On GIPR, this molecule had an EC50 of 0.0484 nM. Also, in data set [1], the “Blood glucose level (mM) 15 min” value came to 14.0 ± 2.2 mM, the “Blood glucose level (mM) 30 min” value amounted to 10.8 ± 1.8 mM, the “Blood glucose level (mM) 60 min” value came out at 7.8 ± 0.7 mM and the “Blood glucose level (mM) 90 min” value stood at 6.7 ± 0.7 mM. Moreover, in data set [1], the “Blood glucose level (mM) 0 min” value came to 4.1 ± 0.4 mM and the AUC0-90 min is 817.4±95.1^a. In data set [2], the AUC(0-inf) was determined as 43.8 ± 10.7 µg·h/mL, the exposure AUC(0-t) was determined as 43.5 ± 10.7 µg·h/mL, the highest level (Cmax) was 0.974 ± 0.248 µg/mL and the half-life is 16 ± 1.6 h. Moreover, in data set [2], the time of peak concentration (Tmax) was 19 ± 9.2 h.

Broadly, the EC50 is the concentration giving half of the maximal effect. A higher EC50 goes with a less potent agent. The AUC(0-inf) is the area under the concentration-time curve extrapolated to infinity. Lower therefore signals less exposure. Usually AUC(0-t) stands for exposure summed from dosing to a finite time, without extrapolation to infinity. Low values mean less exposure, high ones more exposure. In general, Cmax refers to the highest concentration seen after dosing. Broadly, the Tmax is the time from dosing to the highest level.
